Data taken from ChEMBL document CHEMBL1201862, “PubChem BioAssay data set” (2004).
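Test compounds were applied to cells in 96-well plates for 48 hours at 5 doses. GI50 marks 50% less growth.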 Active and inactive are the calls of the source. Cut-off read from the data, not from the text of the source: active = GI50 up to about 1.1 µM and inactive = higher.

Assays:
Assay in all cases: inhibition of tumour cell growth, NCI panel, 48 h
A549 = system: A549
Hs-578T = system: Hs-578T
EKVX = system: EKVX
SK-OV-3 = system: SK-OV-3
BT-549 = system: BT-549
SW-620 = system: SW-620
T47D = system: T47D
DU-145 = system: DU-145
MCF7 = system: MCF7
HOP-92 = system: HOP-92
SNB-19 = system: SNB-19
OVCAR-4 = system: OVCAR-4
RXF 393 = system: RXF 393
SK-MEL-28 = system: SK-MEL-28
NCI-H460 = system: NCI-H460
HOP-18 = system: HOP-18
UACC-62 = system: UACC-62
DMS-114 = system: DMS-114
CAKI-1 = system: CAKI-1
IGROV-1 = system: IGROV-1

| Structure (SMILES) | GI50 (A549) | GI50 (Hs-578T) | GI50 (EKVX) | GI50 (SK-OV-3) | GI50 (BT-549) | GI50 (SW-620) | GI50 (T47D) | GI50 (DU-145) | GI50 (MCF7) | GI50 (HOP-92) | GI50 (SNB-19) | GI50 (OVCAR-4) | GI50 (RXF 393) | GI50 (SK-MEL-28) | GI50 (NCI-H460) | GI50 (HOP-18) | GI50 (UACC-62) | GI50 (DMS-114) | GI50 (CAKI-1) | GI50 (IGROV-1) |
| --- | --- | --- | --- | --- | --- | --- | --- | --- | --- | --- | --- | --- | --- | --- | --- | --- | --- | --- | --- | --- |
| OCCCCCCOc1ccc(-c2cc(-c3ccccn3)nc(-c3ccccn3)c2)cc1 | 230 nM (active) | 419 nM (active) | 180 nM (active) | 211 nM (active) | 149 nM (active) | 367 nM (active) | 148 nM (active) | 71.6 nM (active) | 32.1 nM (active) | 643 nM (active) | 158 nM (active) | 177 nM (active) | 239 nM (active) | 248 nM (active) | 104 nM (active) | 182 nM (active) | 149 nM (active) | 207 nM (active) | 256 nM (active) | 205 nM (active) |
| Cn1c(=O)nc2n(-c3ccc(Cl)cc3)c3cc(Cl)ccc3nc-2c1=O | 12900 nM (inactive) | 2480 nM (inactive) | 8850 nM (inactive) | 18300 nM (inactive) | 4120 nM (inactive) | 2120 nM (inactive) | 920 nM (active) | 15600 nM (inactive) | 577 nM (active) | 7310 nM (inactive) | 14300 nM (inactive) | 1320 nM (inactive) | 4450 nM (inactive) | 3200 nM (inactive) | 10000 nM (inactive) | 14900 nM (inactive) | 1880 nM (inactive) | 1780 nM (inactive) | 10900 nM (inactive) | 1600 nM (inactive) |
